Source: patent US6777422B2, “Substituted tetrahydroisoquinolines as C5a receptor modulators” (Neurogen Corp., priority 2002, dated 2004)

molecular target: T1, human C5a receptor (Homo sapiens, UniProt P21730); assay: C5a receptor mediated calcium mobilization assay (Example 20); type: cell-based; conditions: differentiated U937 cells, read-out: Ca2+ (Ki in the standard assay of C5a receptor mediated calcium mobilization)
T1 construct: endogenous in cells; host or cells: U937 cells differentiated with 1 mM dibutyryl cAMP
T1 sequence (P21730 1-350): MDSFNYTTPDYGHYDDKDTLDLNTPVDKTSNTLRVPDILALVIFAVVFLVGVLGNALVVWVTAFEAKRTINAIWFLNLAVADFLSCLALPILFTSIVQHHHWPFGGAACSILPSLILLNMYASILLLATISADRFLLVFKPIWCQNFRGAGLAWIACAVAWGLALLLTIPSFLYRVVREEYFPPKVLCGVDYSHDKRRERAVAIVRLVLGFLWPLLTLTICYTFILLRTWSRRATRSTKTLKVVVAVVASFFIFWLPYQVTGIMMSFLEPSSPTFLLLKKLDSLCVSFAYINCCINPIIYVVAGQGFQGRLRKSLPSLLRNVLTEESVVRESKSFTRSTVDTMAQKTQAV
Method: Calcium Mobilization Assays
U937 cells are grown in differentiation media (1 mM dibutyryl cAMP in RPMI 1640 medium containing 10% fetal bovine serum) for 48 hrs at 37° C. then reseeded onto 96-well plates suitable for use in a FLIPR™ Plate Reader (Molecular Devices Corp., Sunnyvale Calif.). Cells are grown an additional 24 hours (to 70-90% confluence) before the assay. The cells are then washed once with Krebs Ringer solution. FLUO-3 calcium sensitive dye (Molecular Probes, Inc. Eugene, Oreg.) is added to 10 μg/mL and incubated with the cells at room temperature for 1 to 2 hours. The 96 well plates are then washed to remove excess dye. Fluorescence responses, measured by excitation at 480 nm and emission at 530 nm, are monitored upon the addition of human C5a to the cells to a final concentration of 0.01-30.0 nM, using the FLIPR™ device (Molecular Devices).
C. Assays for the Identification of Receptor Modulatory Agents: Antagonists and Agonists
The calcium mobilization assay described above may be readily adapted for identifying test compounds that have agonist or antagonist activity at the human C5a receptor.
For example, in order to identify antagonist compounds, differentiated U937 cells are washed and incubated with Fluo-3 dye as described above. One hour prior to measuring the fluorescence signal, a subset of the cells is incubated with 1 μM of at least one compound to be tested. The fluorescence response upon the subsequent addition of 0.3 nM (final concentration) human recombinant C5a is monitored using the FLIPR™ plate reader. Antagonist compounds elicit at least a 2-fold decrease in the fluorescence response relative to that measured in the presence of human C5a alone. Preferred antagonist compounds elicit at least a 5-fold, preferably at least a 10-fold, and more preferably at least a 20-fold decrease in the fluorescence response relative to that measured in the presence of human C5a alone.

Ki, < 1000 nM:
C[C@@H](C(=O)N(Cc1ccccc1F)C1Cc2ccccc2C1)N1CCc2ccccc2[C@@H]1c1cccc2c1OCC2 [Compound 75, (2S)-2-[(1R)-1-(2,3-dihydro-1-benzofuran-7-yl)-3,4-dihydroisoquinolin-2(1H)-yl]-N-(indan-2-yl)-N-(2-fluorobenzyl)propanamide]
COC(=O)c1ccc(C2c3ccccc3CCN2CC(=O)N(Cc2ccccc2F)C2Cc3ccccc3C2)cc1 (stereo not drawn) [Compound 76, methyl 4-(2-{2-[indan-2-yl(2-fluorobenzyl)amino]-2-oxoethyl}-1,2,3,4-tetrahydroisoquinolin-1-yl)benzoate]
C[C@@H](C(=O)N(Cc1ccccc1)Cc1ccc(O)cc1Cl)N1CCc2ccccc2[C@@H]1c1ccccc1Br [Compound 77, (2S)-N-benzyl-2-[(1R)-1-(2-bromophenyl)-3,4-dihydroisoquinolin-2(1H)-yl]-N-(2-chloro-4-hydroxybenzyl)propanamide]
COc1cccc(CN(C(=O)CN2CCc3ccccc3C2c2ccccc2C)C2Cc3ccccc3C2)c1 (stereo not drawn) [Compound 79, N-(indan-2-yl)-N-(3-methoxybenzyl)-2-[1-(2-methylphenyl)-3,4-dihydroisoquinolin-2(1H)-yl]acetamide]
Cc1cc(C)c(C2c3ccccc3CCN2CC(=O)N(Cc2ccccc2F)C2Cc3ccccc3C2)c(C)c1 (stereo not drawn) [Compound 80, N-(indan-2-yl)-N-(2-fluorobenzyl)-2-(1-mesityl-3,4-dihydroisoquinolin-2(1H)-yl)acetamide]
O=C(CN1CCc2ccccc2C1c1c(F)cccc1F)N(Cc1ccccc1F)C1Cc2ccccc2C1 (stereo not drawn) [Compound 81, 2-[1-(2,6-difluorophenyl)-3,4-dihydroisoquinolin-2(1H)-yl]-N-(indan-2-yl)-N-(2-fluorobenzyl)acetamide]
Cc1ccccc1C1c2ccccc2CCN1CC(=O)N(Cc1ccccc1F)c1ccccc1 (stereo not drawn) [Compound 82, N-(2-fluorobenzyl)-2-[1-(2-methylphenyl)-3,4-dihydroisoquinolin-2(1H)-yl]-N-phenylacetamide]
Cc1ccc2ccccc2c1C1c2ccccc2CCN1CC(=O)N(Cc1ccccc1F)C1Cc2ccccc2C1 (stereo not drawn) [Compound 83, N-(indan-2-yl)-N-(2-fluorobenzyl)-2-[1-(2-methyl-1-naphthyl)-3,4-dihydroisoquinolin-2(1H)-yl]acetamide]
Cc1ccc(Cl)c([C@H]2c3ccccc3CCN2[C@@H](C)C(=O)N(Cc2ccccc2F)C2Cc3ccccc3C2)c1 [Compound 84, (2S)-2-[(1R)-1-(2-chloro-5-methylphenyl)-3,4-dihydroisoquinolin-2(1H)-yl]-N-(indan-2-yl)-N-(2-fluorobenzyl)propanamide]
Cc1ccc(C)c([C@H]2c3ccccc3CCN2[C@@H](C)C(=O)N(Cc2ccccc2F)C2Cc3ccccc3C2)c1 [Compound 85, (2S)-N-(indan-2-yl)-2-[(1S)-1-(2,5-dimethylphenyl)-3,4-dihydroisoquinolin-2(1H)-yl]-N-(2-fluorobenzyl)propanamide]
Cc1ccc(F)c([C@H]2c3ccccc3CCN2[C@@H](C)C(=O)N(Cc2ccccc2F)C2Cc3ccccc3C2)c1 [Compound 86, (2S)-N-(indan-2-yl)-N-(2-fluorobenzyl)-2-[(1R)-1-(2-fluoro-5-methylphenyl)-3,4-dihydroisoquinolin-2(1H)-yl]propanamide]
C[C@@H](C(=O)N(Cc1ccccc1F)Cc1ccccc1F)N1CCc2ccccc2[C@@H]1c1ccccc1Cl [Compound 87, (2S)-2-[(1R)-1-(2-chlorophenyl)-3,4-dihydroisoquinolin-2(1H)-yl]-N,N-bis(2-fluorobenzyl)propanamide]
Cc1ccccc1C1c2ccccc2CCN1CC(=O)N(Cc1ccc(C(=O)O)cc1)C1Cc2ccccc2C1 (stereo not drawn) [Compound 88, 4-[(indan-2-yl{[1-(2-methylphenyl)-3,4-dihydroisoquinolin-2(1H)-yl]acetyl}amino)methyl] benzoic acid]
C[C@@H](C(=O)N(Cc1ccccc1F)C1Cc2ccccc2C1)N1CCc2ccccc2[C@@H]1c1c(F)cccc1F [Compound 89, (2S)-2-[(1R)-1(2,6-difluorophenyl)-3,4-dihydroisoquinolin-2(1H)-yl]-N-(indan-2-yl)-N-(2-fluorobenzyl)propanamide]
C[C@@H](C(=O)N(Cc1ccccc1O)C1Cc2ccccc2C1)N1CCc2ccccc2[C@@H]1c1ccccc1Cl [Compound 90, (2S)-2-[(1R)-1-(2-chlorophenyl)-3,4-dihydroisoquinolin-2(1H)-yl]-N-(indan-2-yl)-N-(2-hydroxybenzyl)propanamide]
C[C@@H](C(=O)N(CCc1ccccc1)Cc1ccccc1F)N1CCc2ccccc2[C@@H]1c1ccccc1Cl [Compound 91, (2S)-2-[(1R)-1-(2-chlorophenyl)-3,4-dihydroisoquinolin-2(1H)-yl]-N-(2-fluorobenzyl)-N-(2-phenylethyl)propanamide]
COc1ccc2c(c1)CC(N(Cc1ccccc1F)C(=O)CN1CCc3ccccc3C1c1ccccc1Cl)C2 (stereo not drawn) [Compound 93, 2-[1-(2-chlorophenyl)-3,4-dihydroisoquinolin-2(1H)-yl]-N-(2-fluorobenzyl)-N-(5-methoxy-indan-2-yl)acetamide]
COc1ccc2c(c1)CC(N(Cc1ccccc1F)C(=O)CN1CCc3ccccc3C1c1ccccc1C(F)(F)F)C2 (stereo not drawn) [Compound 94, N-(2-fluorobenzyl)-N-(5-methoxy-indan-2-yl)-2-[1-[2-(trifluoromethyl)phenyl]-3,4-dihydroisoquinolin-2(1H)-yl]acetamide]
O=C(CN1CCc2ccccc2C1c1c(Cl)cccc1Cl)N(Cc1ccccc1F)C1Cc2ccccc2C1 (stereo not drawn) [Compound 95, 2-[1-(2,6-dichlorophenyl)-3,4-dihydroisoquinolin-2(1H)-yl]-N-(indan-2-yl)-N-(2-fluorobenzyl)acetamide]
O=C(CN1CCc2ccccc2C1c1c(F)cccc1Cl)N(Cc1ccccc1F)C1Cc2ccccc2C1 (stereo not drawn) [Compound 96, 2-[1-(2-chloro-6-fluorophenyl)-3,4-dihydroisoquinolin-2(1H)-yl]-N-(indan-2-yl)-N-(2-fluorobenzyl)acetamide]
C[C@@H](C(=O)N(Cc1c[nH]cn1)C1Cc2ccccc2C1)N1CCc2ccccc2[C@@H]1c1ccccc1Cl [Compound 97, (2S)-2-[(1R)-1-(2-chlorophenyl)-3,4-dihydroisoquinolin-2(1H)-yl]-N-(indan-2-yl)-N-(1H-imidazol-4-ylmethyl)propanamide]
C[C@@H](C(=O)N(Cc1cccc(C(=O)O)c1)C1Cc2ccccc2C1)N1CCc2ccccc2[C@@H]1c1ccccc1Cl [Compound 98, 3{[{(2S)-2-[(1R)-1-(2-chlorophenyl)-3,4-dihydroisoquinolin-2(1H)-yl]propanoyl}(indan-2-yl)amino]methyl}benzoic acid]
O=C(CN1CCc2ccccc2C1c1c(F)cccc1C(F)(F)F)N(Cc1ccccc1F)C1Cc2ccccc2C1 (stereo not drawn) [Compound 99, N-(indan-2-yl)-N-(2-fluorobenzyl)-2-[1-[2-fluoro-6-(trifluoromethyl)phenyl]-3,4-dihydroisoquinolin-2(1H)-yl]acetamide]
Cc1ccccc1C1c2c(F)cccc2CCN1CC(=O)N(Cc1ccccc1F)C1Cc2ccccc2C1 (stereo not drawn) [Compound 100, N-(indan-2-yl)-N-(2-fluorobenzyl)-2-[8-fluoro-1-(2-methylphenyl)-3,4-dihydroisoquinolin-2(1H)-yl]acetamide]
